# Tested on: salicylic acid binding protein
# Assay: Competitive [14C] salicylic acid binding assay (spin-column)
# Parameters: species or system tobacco
# Conditions: [14C] salicylic acid 20 μM
# Method in brief: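 Plant-fractionated binding protein incubated 2 hr at 4 °C with 5 μM-20 μM [14C]salicylic acid, with analogues added to the mixture as competitors. Bound ligand separated from free by spin-column gel exclusion (6 kDa limit) and counted; binding activity compared with analogue-free controls.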
smiles,measurement,setting,value
"O=C(O)c1ccccc1O [salicylic acid, 2-hydroxybenzoic acid]",Inhibition (%) 2×,40 μM (2×) unlabeled competitor,50%
same,Inhibition (%) 10×,200 μM (10×) unlabeled competitor,91%

# Source: US5989846A, “Assays to identify inducers of plant defense resistance” (Rutgers, The State University of New Jersey, priority 1995, dated 1999)
